This assay deals with T1, ALK2 (Homo sapiens, UniProt Q04771).
T1 construct: purchased ThermoFisher Scientific (Life Technologies)
T1 sequence (Q04771 21-509): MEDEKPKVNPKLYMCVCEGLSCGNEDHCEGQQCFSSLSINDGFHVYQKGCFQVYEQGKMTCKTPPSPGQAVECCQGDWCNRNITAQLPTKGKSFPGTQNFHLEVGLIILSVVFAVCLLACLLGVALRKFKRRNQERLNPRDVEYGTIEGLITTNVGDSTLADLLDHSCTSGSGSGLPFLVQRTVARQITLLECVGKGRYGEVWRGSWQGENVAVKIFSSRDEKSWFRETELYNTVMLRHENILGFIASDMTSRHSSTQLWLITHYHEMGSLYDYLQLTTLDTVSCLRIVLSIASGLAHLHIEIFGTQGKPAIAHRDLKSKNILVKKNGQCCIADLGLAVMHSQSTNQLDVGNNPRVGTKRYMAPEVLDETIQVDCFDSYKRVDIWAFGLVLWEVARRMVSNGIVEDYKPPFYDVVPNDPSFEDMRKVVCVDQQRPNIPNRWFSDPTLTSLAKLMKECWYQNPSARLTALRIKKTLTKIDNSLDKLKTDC
Nature of the assay: LanthaScreen Eu Kinase Binding Assay, ALK2 inhibition. Particulars: 1 micromolar concentration. As for the experimental part: Biochemical assays to measure the inhibitory effects of the compounds were performed by ThermoFisher Scientific (Life Technologies). ALK2 inhibition was tested using LanthaScreen™ Eu Kinase Binding Assay screening protocol.

Structures can show the parent of a compound that is named as a salt.

For `C=C(C)c1nc(Nc2cn(-c3cc(OC)c(OC)c(OC)c3)cn2)c2ccccc2n1` [Compound 70b, 2-(prop-1-en-2-yl)-N-(1-(3,4,5-trimethoxyphenyl)-1H-imidazol-4-yl)quinazolin-4-amine], the inhibition at 1 µM is more than 50%.

In turn, `COc1cc(-n2cnc(Nc3nc(C4CC4)nc4c3cnn4C3CC3)c2)cc(OC)c1OC` [Compound 116d, 1,6-dicyclopropyl-N-(1-(3,4,5-trimethoxyphenyl)-1H-imidazol-4-yl)-1H-pyrazolo[3,4-d]pyrimidin-4-amine] gave an inhibition at 1 µM of more than 50%.

In turn, `COc1cc(-n2cnc(Nc3nc(C(C)C)nc4c3cnn4-c3c(F)cccc3F)c2)cc(OC)c1OC` [Compound 43d, 1-(2,6-difluorophenyl)-6-isopropyl-N-(1-(3,4,5-trimethoxyphenyl)-1H-imidazol-4-yl)-1H-pyrazolo[3,4-d]pyrimidin-4-amine] came in with an inhibition at 1 µM of more than 50%.

The compound `COc1cc(-n2cnc(Nc3nc(C4=CCN(C)CC4)nc4c3cnn4C(C)C)c2)cc(OC)c1OC` [Compound 38b, 1-isopropyl-6-(1-methyl-1,2,3,6-tetrahydropyridin-4-yl)-N-(1-(3,4,5-trimethoxyphenyl)-1H-imidazol-4-yl)-1H-pyrazolo[3,4-d]pyrimidin-4-amine] registered an inhibition at 1 µM of more than 50%.

In the case of `COc1cc(-n2cnc(Nc3nc(C(C)C)nc4ccccc34)c2)cc(OC)c1OC` [Compound 73a, 2-isopropyl-N-(1-(3,4,5-trimethoxyphenyl)-1H-imidazol-4-yl)quinazolin-4-amine], the inhibition at 1 µM was more than 50%.

As to `COc1cc(-n2cnc(Nc3cc(C4CC4)nc4c(C(C)C)cnn34)c2)cc(OC)c1OC` [Compound 110d, 5-cyclopropyl-3-isopropyl-N-(1-(3,4,5-trimethoxyphenyl)-1H-imidazol-4-yl)pyrazolo[1,5-a]pyrimidin-7-amine], the inhibition at 1 µM is less than 50%.

In the case of `COc1cc(-n2cnc(Nc3nc(C(C)C)nc4scnc34)c2)cc(OC)c1OC` [Compound 93a, 5-isopropyl-N-(1-(3,4,5-trimethoxyphenyl)-1H-imidazol-4-yl)thiazolo[5,4-d]pyrimidin-7-amine], the inhibition at 1 µM was more than 50%.

`COc1cc(-n2cnc(Nc3nc(C(C)C)nc4cccnc34)c2)cc(OC)c1OC` [Compound 83a, 2-isopropyl-N-(1-(3,4,5-trimethoxyphenyl)-1H-imidazol-4-yl)pyrido[3,2-d]pyrimidin-4-amine]: the inhibition at 1 µM is more than 50%.

In turn, `COc1cc(-n2cnc(Nc3nc(C(C)C)nc4c3CCN(C(=O)OC(C)(C)C)C4)c2)cc(OC)c1OC` [Compound 77a, tert-butyl 2-isopropyl-4-((1-(3,4,5-trimethoxyphenyl)-1H-imidazol-4-yl)amino)-5,6-dihydropyrido[3,4-d]pyrimidine-7 (8H)-carboxylate] registered an inhibition at 1 µM of more than 50%.

In the case of `COc1cc(-n2cnc(Nc3nc(CC4CC4)nc4c3cnn4CC3CC3)c2)cc(OC)c1OC` [Compound 121f, 1,6-bis(cyclopropylmethyl)-N-(1-(3,4,5-trimethoxyphenyl)-1H-imidazol-4-yl)-1H-pyrazolo[3,4-d]pyrimidin-4-amine], the inhibition at 1 µM was more than 50%.

`COc1cc(-n2cnc(Nc3nc(C(C)C)nc4ccsc34)c2)cc(OC)c1OC` [Compound 52b, 2-isopropyl-N-(1-(3,4,5-trimethoxyphenyl)-1H-imidazol-4-yl)thieno[3,2-d]pyrimidin-4-amine hydrochloride] displayed an inhibition at 1 µM of more than 50%.

On to `COc1cc(-n2cnc(Nc3nc(C(C)CCN(C)C)nc4c3cnn4C(C)C)c2)cc(OC)c1OC` (centres unmarked) [Compound 100b, 6-(4-(dimethylamino)butan-2-yl)-1-isopropyl-N-(1-(3,4,5-trimethoxyphenyl)-1H-imidazol-4-yl)-1H-pyrazolo[3,4-d]pyrimidin-4-amine], for which the inhibition at 1 µM was more than 50%.

In turn, `COc1cc(-n2cnc(Nc3nc(CC(C)C)nc4c3CCC4c3ccccc3)c2)cc(OC)c1OC` (centres unmarked) [Compound 46d, 2-isobutyl-7-phenyl-N-(1-(3,4,5-trimethoxyphenyl)-1H-imidazol-4-yl)-6,7-dihydro-5H-cyclopenta[d]pyrimidin-4-amine] displayed an inhibition at 1 µM of more than 50%.

For the compound `COc1cc(-n2cnc(Nc3nc(C(C)C)nc4c3cnn4-c3ccc(F)cc3F)c2)cc(OC)c1OC` [Compound 42d, 1-(2,4-difluorophenyl)-6-isopropyl-N-(1-(3,4,5-trimethoxyphenyl)-1H-imidazol-4-yl)-1H-pyrazolo[3,4-d]pyrimidin-4-amine], the inhibition at 1 µM was more than 50%.

Compound `COc1cc(-n2cnc(Nc3nc(C4CC4)nc4c(C(C)C)cnn34)c2)cc(OC)c1OC` [Compound 111d, 2-cyclopropyl-8-isopropyl-N-(1-(3,4,5-trimethoxyphenyl)-1H-imidazol-4-yl)pyrazolo[1,5-a][1,3,5]triazin-4-amine] returned an inhibition at 1 µM of more than 50%.

On to `CNC(=O)CC(C)c1nc(Nc2cn(-c3cc(OC)c(OC)c(OC)c3)cn2)c2cnn(C(C)C)c2n1` (centres unmarked) [Compound 108a, 3-(1-isopropyl-4-((1-(3,4,5-trimethoxyphenyl)-1H-imidazol-4-yl)amino)-1H-pyrazolo[3,4-d]pyrimidin-6-yl)-N-methylbutanamide], for which the inhibition at 1 µM was more than 50%.

As to `COc1cc(-n2cnc(Nc3nc(C4CC4)nc4c3cnn4CC3CC3)c2)cc(OC)c1OC` [Compound 120f, 6-cyclopropyl-1-(cyclopropylmethyl)-N-(1-(3,4,5-trimethoxyphenyl)-1H-imidazol-4-yl)-1H-pyrazolo[3,4-d]pyrimidin-4-amine], the inhibition at 1 µM is more than 50%.

Turning to `COc1cc(-n2cnc(Nc3nc(C4CC4)nc4c3cnn4C(C)C)c2)cc(OC)c1OC` [Compound 7e, 6-cyclopropyl-1-isopropyl-N-(1-(3,4,5-trimethoxyphenyl)-1H-imidazol-4-yl)-1H-pyrazolo[3,4-d]pyrimidin-4-amine], the inhibition at 1 µM is more than 50%.

The compound `C=C(C)c1nc(Nc2cn(-c3cc(OC)c(OC)c(OC)c3)cn2)c2ncsc2n1` [Compound 63c, 5-(prop-1-en-2-yl)-N-(1-(3,4,5-trimethoxyphenyl)-1H-imidazol-4-yl)thiazolo[5,4-d]pyrimidin-7-amine] registered an inhibition at 1 µM of more than 50%.

Regarding `COc1cc(-n2cnc(Nc3nc(CC4CC4)nc4c3cnn4C(C)(C)C)c2)cc(OC)c1OC` [Compound 119e, 1-(tert-butyl)-6-(cyclopropylmethyl)-N-(1-(3,4,5-trimethoxyphenyl)-1H-imidazol-4-yl)-1H-pyrazolo[3,4-d]pyrimidin-4-amine], the inhibition at 1 µM was more than 50%.

The compound `COc1cc(-n2cnc(Nc3nc(C)c4cnn(C(C)C)c4n3)c2)cc(OC)c1OC` [Compound 11b, 1-isopropyl-4-methyl-N-(1-(3,4,5-trimethoxyphenyl)-1H-imidazol-4-yl)-1H-pyrazolo[3,4-d]pyrimidin-6-amine] yielded an inhibition at 1 µM of more than 50%.

`CCC(C)c1nc(Nc2cn(-c3cc(OC)c(OC)c(OC)c3)cn2)c2cnn(C(C)C)c2n1` (centres unmarked) [Compound 33d, 6-(sec-butyl)-1-isopropyl-N-(1-(3,4,5-trimethoxyphenyl)-1H-imidazol-4-yl)-1H-pyrazolo[3,4-d]pyrimidin-4-amine] registered an inhibition at 1 µM of more than 50%.

`CCCCCC(C)c1nc(Nc2cn(-c3cc(OC)c(OC)c(OC)c3)cn2)c2cnn(C(C)C)c2n1` (centres unmarked) [Compound 59e, 6-(heptan-2-yl)-1-isopropyl-N-(1-(3,4,5-trimethoxyphenyl)-1H-imidazol-4-yl)-1H-pyrazolo[3,4-d]pyrimidin-4-amine] had an inhibition at 1 µM of more than 50%.

The inhibition is the share of the control response that was lost under treatment. Lower therefore signals a response near the control.

The values above are taken from US20240270750A1, “IMIDAZOLE-CONTAINING INHIBITORS OF ALK2 KINASE” (BioCryst Pharmaceuticals, Inc., priority 2021, published 2024).
